This passage reports melting point results from a melting point compilation (Tetko et al.; mined from patent text by program, amines drawn as free bases though some values may be those of a salt).

As usually defined, the melting point is the temperature, or range, at which the solid turns liquid. Consider `C[C@@H](NS(C)(=O)=O)[C@](O)(Cn1cncn1)c1ccc(Cl)cc1Cl` (relative stereo), for which the melting point lay within 177 to 180 °C.

The molecule `COc1ccc(C(=O)N2CC(O)CC2C(=O)O)cc1` (centres undefined) displayed a melting point of 192 °C.

Molecule `CC(=O)c1c(C)cc(NC(C)(C)C)nc1NC(C)(C)C` yielded a melting point of 127 to 128 °C.

Regarding `COC(=O)c1ccc(N=Cc2ccc(Cl)c(Cl)c2)cn1`, the melting point is 202 to 207 °C.

Molecule `O=C(O)C1=Cc2cc(Cl)cnc2NC1C(F)(F)F` (centres undefined) showed a melting point of 287 to 288 °C.

The molecule `CC(C)(C)C(=O)NNc1cc(F)c(C#N)cc1F` gave a melting point of 167 °C.

`COc1cccc(C(C)(C)C(=O)O)c1`: the melting point fell in the range of 46 to 47 °C.

For `O=C(O)c1conc1-c1ccc(F)cc1`, the melting point was 170 to 174 °C.

As for `Oc1ccc(-c2cccnc2)cc1O`, the melting point fell in the range of 288 to 290 °C.

Regarding `CCC(OC(C)=O)c1ccc(Cl)c2nc3n(c12)CCCN3c1cnc(N(C)C)cc1C` (centres undefined), the melting point lay within 159 to 160 °C.

As for `CCCCc1cc(C(O)=S)cc(N)c1C(=O)c1ccccc1`, the melting point was 144 to 145 °C.

`Oc1ccc(-c2nc3cc(O)cc(Br)c3o2)cc1`: the melting point fell in the range of 139 to 141 °C.

As to `CCCNC(=O)c1ccc2c(c1)N(C(C)CN(C)CC)c1ccccc1S2` (racemic), the melting point came to 100 °C.

`Cc1nc(C)nc(-c2cccc(-c3ccccc3C)n2)n1` registered a melting point of 86.8 °C.

Molecule `CCOCCOc1ccc(CCNC(=O)OC(C)(C)C)cc1` gave a melting point of 56 to 57 °C.

Regarding `CCC1c2nc[nH]c2CCN1C(=S)NC(C)C` (centres undefined), the melting point is 215 °C.

For the molecule `CC(=O)N[C@@H](CSC(=O)C(C)C)C(=O)NCCSC(=O)C(C)(C)C`, the melting point is 101 to 102 °C.

As to `Cc1cc(C)c(-c2cn(C)c3nc(N4CCCCC4)n(C)c(=O)c23)c(C)c1`, the melting point fell in the range of 210 to 212 °C.

Take `CCN(CC)c1ccc(C(c2ccc(N(C)C)cc2)c2ccc(N(C)C)cc2)c(OC(=O)Nc2ccccc2)c1`: the melting point was in the range of 145 to 146 °C.

In turn, `CCOc1cccc(-c2ccnc3c(C(=O)c4cccs4)cnn23)c1` yielded a melting point of 146 to 148 °C.

In turn, `CN(c1cccc2cc(-c3ncc(CC#N)s3)[nH]c12)S(=O)(=O)c1cccs1` gave a melting point of 186 to 187 °C.

Take `CCc1ccc2oc(Cc3cccc(OC)c3)c(CCNC(C)=O)c2c1`: the melting point was 102 °C.

For the molecule `CCOC(=O)c1cn2c(-c3nn(C)c(OC(F)F)c3Cl)c(F)cc(Cl)c2n1`, the melting point was in the range of 140 to 143 °C.

In turn, `CCCCCc1ccc(-c2ccc(-c3cc(F)c(C(F)(F)Oc4cc(F)c(C(F)(F)F)c(F)c4)c(F)c3)c(F)c2)cc1` returned a melting point of 96 °C.

`CCOc1ccc(CNC(=O)n2cc(F)c(=O)[nH]c2=O)cc1OC` gave a melting point of 153 °C.

`Cc1c(OCC#N)cc2c(c1Cl)C(=O)C1(CCCC1)C2=O`: the melting point fell in the range of 137 to 139 °C.

For the molecule `NS(=O)(=O)c1ccccc1C(=S)N1CCCC1`, the melting point lay within 186 to 187 °C.

As for `Nc1ccc(N2CCN(Cc3ccccc3)CC2)cc1CS(=O)(=O)c1ccccc1`, the melting point lay within 141 to 143 °C.

The molecule `COC(=O)Nc1cc(F)c(Br)cc1I` registered a melting point of 101 to 102 °C.

In the case of `COc1ccccc1-c1ccc(C(=O)N2Cc3ccc(C(=O)NCc4cccn4C)n3Cc3ccccc32)cc1`, the melting point lay within 148 to 150 °C.

As for `COC(=O)c1cc2c(Br)cccc2n1C`, the melting point is 85 to 86 °C.

`CCOc1ccc2ccccc2c1C(=O)N1CCC(NS(=O)(=O)c2cc(S(=O)(=O)c3ccccc3)ccc2C(C)C)CC1` returned a melting point of 164 to 166 °C.

As for `CC(C)n1c(C=O)c(-c2ccc(F)cc2)c(-c2ccccc2)c1C(=O)Nc1ccccc1`, the melting point was in the range of 222 to 224 °C.

With `COc1ccc(NC(=O)C23CC4CC(CC(C4)C2)C3)cc1`, the melting point was 181 to 184 °C.

Regarding `COC(=O)c1[nH]c2c(C)ccc(C)c2c1S(C)=O` (centres undefined), the melting point was 127 °C.

For the molecule `CCCCCCCCCCCC=CC(O)C(COC1OC(CO)C(O)C(O)C1O)NC(=O)CCCCCCCCCCCCCCCCC` (centres undefined), the melting point was in the range of 209 to 210 °C.

In turn, `CCN(CC)C(=O)CN1C(=O)C(NC(=O)Nc2cccc(OC)c2)N=C(c2ccccc2)c2ccccc21` (centres undefined) showed a melting point of 222 to 224 °C.

Molecule `Oc1ccc(-c2cocn2)cc1` came in with a melting point of 148 °C.

`CC(C)(C)c1cc(C(=O)c2ccco2)cc2c1OCC2(C)C` yielded a melting point of 103 to 104 °C.

The molecule `CCn1ncnc1COc1nc2c(cc1C(C)(C)C)nnn2-c1ccccc1F` displayed a melting point of 117 to 120 °C.

`CCCn1nc(-c2ccc(OC)cc2)c2cccc(-c3ccc(F)cc3)c21` showed a melting point of 110 to 111 °C.

Consider `O=C(CCC1C2CC3CC(C2)CC1C3)N1C(=O)OCC1Cc1ccccc1` (centres undefined), for which the melting point is 82 to 83 °C.

As to `CCC(=O)Oc1ccc(C(=O)Nc2ccc3cc(CN4CCCC4)cnc3c2C)cc1`, the melting point lay within 146 to 147 °C.

In turn, `CC(=O)c1ccc(C=CC(=O)NCCO)cc1` registered a melting point of 124 to 125 °C.

`COC(=O)CCCc1cc2nc(C(F)(F)F)ccc2n1S(=O)(=O)c1ccc(Cl)cc1` gave a melting point of 97 °C.

The molecule `ON=c1cc(-c2cc3cccn3cn2)oc2cccc(C(F)(F)F)c12` had a melting point of 255 to 257 °C.

The molecule `CCN(C)C(=O)Nc1ccc2c(c1Cl)C(c1ccccc1F)=NCC(=O)N2C` displayed a melting point of 184 to 186 °C.

For the molecule `CCOC(=O)C(OCC)(OCC)C(=O)c1cccc2snnc12`, the melting point was 123 to 125 °C.

The molecule `CC1=NC(C)c2nnc(-c3ccc(Cl)cc3)n2-c2ccccc21` (centres undefined) registered a melting point of 230 °C.

`Nc1cccc2c1Cc1ccccc1C2=O` displayed a melting point of 158 to 161 °C.

Turning to `CC(=O)N(C(C)=O)c1nsc2ccccc12`, the melting point was 65 to 67 °C.

The molecule `CC(C)(C)OC(=O)N1CCn2c(C#N)c(-c3cccc(F)c3)c(C(N)=O)c2C1` returned a melting point of 208 to 210 °C.

Molecule `Cc1cccc(C(O)c2ccc(N)cc2)n1` (centres undefined) registered a melting point of 165 to 166 °C.

In the case of `N#Cc1ccc(Oc2cccc(Oc3ccc(C#N)c(C#N)c3)c2)cc1C#N`, the melting point is 183 to 186 °C.

The molecule `c1ccc(-c2[nH]c3cc4c(cc3c2-c2ccccc2)OCO4)cc1` showed a melting point of 187 to 188 °C.

`CN1C(=O)C(=O)NCC1(CCO)c1ccc(Cl)c(Cl)c1` (centres undefined) yielded a melting point of 260 °C.

For the molecule `CCOc1ccc(S(=O)(=O)N2c3ccc(Cl)cc3C(O)(c3ccccc3Cl)C2C(=O)N(C)CC(=O)OC)cc1` (centres undefined), the melting point is 168 to 171 °C.

`O=C1C=c2c(c3[nH]c4c(c3c3c2=CN=C3)CCCC4)C1` came in with a melting point of over 300 °C.

`COc1cc(C2(C)COc3c(OC)cc(C=O)cc32)ccc1O` (centres undefined) showed a melting point of 162 to 165 °C.

As for `CCCCCCCCCCCCCCC(=O)C(=O)N[C@@H](CCCC)C(=O)NCC(=O)OCC`, the melting point lay in the range of 63 to 65 °C.

On to `COc1cccc(Cc2nnc(SC)[nH]c2=O)c1`, for which the melting point lay within 185 to 186 °C.

In turn, `Cc1cccc2c(=O)n3c(nc12)C(=O)c1cc(F)ccc1-3` gave a melting point of 255 to 257 °C.

Consider `CCOC(=O)COc1c(C=O)cccc1OC`, for which the melting point fell in the range of 75.1 to 76.2 °C.

As for `Nc1ccc(C(=O)c2ccccc2)cc1COC1CCCCO1` (centres undefined), the melting point is 164 °C.

In the case of `COc1ccc(N2C(=O)C(OC)C2c2ccc(C(=O)O)cc2)cc1` (centres undefined), the melting point was 233 °C.

In turn, `C=CCN1CCC23CC(=O)CCC2C1Cc1cccc(OC)c13` (centres undefined) displayed a melting point of 84 to 86 °C.

As for `CN(C)c1ccc(C=C2C(=O)NC(=S)NC2=O)cc1`, the melting point turned out to be 272 °C.

The molecule `CS(=O)(=O)c1ccc(-c2cc(C(=O)CCCO[N+](=O)[O-])nn2-c2ccccc2)cc1` showed a melting point of 142 to 144 °C.

For the molecule `O=C(Nc1ccc2nc3[nH]c(=O)[nH]c3cc2c1)c1ccccc1`, the melting point was over 300 °C.

Molecule `COc1ccc(S(=O)(=O)C2(C(=O)NO)CCN(Cc3ccc(OCCN4CCCCC4)cc3)CC2)cc1` showed a melting point of 114 °C.

In turn, `CC(C)(C)OC(=O)NCCc1c[nH]c2ccc(Oc3ccccc3)c(Cl)c12` gave a melting point of 163 to 166 °C.

As to `Cc1nc2cc(S(=O)(=O)n3c(CCCC(=O)O)cc4cc(C(F)(F)F)ccc43)ccc2s1`, the melting point lay in the range of 171 to 178 °C.

Regarding `O=c1[nH]c2cc(Cl)ccc2c(O)c1-c1cccc(S(=O)(=O)c2ccccc2)c1`, the melting point is 260 °C.

Turning to `COc1ccc2c(c1)-c1c(C#N)c(N3CCCCC3)c3c(c1C2)-c1ccccc1C3`, the melting point lay within 216 to 218 °C.

Regarding `Clc1cccc(Oc2nccnc2Cl)c1`, the melting point was 83 to 85 °C.

As for `CC(=O)O[C@H]1CC=CO[C@@H]1COS(=O)(=O)c1ccc(C)cc1`, the melting point fell in the range of 76 to 79 °C.

The molecule `CSc1nnc(-c2snnc2C)o1` yielded a melting point of 65 °C.

In turn, `CC(NC(=O)OC(C)(C)C)C(=O)NO` (centres undefined) had a melting point of 74 to 76 °C.

Molecule `O=C(O)C1=C(C(=O)O)Oc2ccccc2O1` had a melting point of 215 to 218 °C.

For the molecule `N#CC1=C(N)Oc2c(ccc3cnccc23)C1c1cccc([N+](=O)[O-])c1` (centres undefined), the melting point was in the range of 239 to 243 °C.

As for `Nc1ccn2nc(-c3cccc(F)c3)nc2c1`, the melting point fell in the range of 200 to 203 °C.

In turn, `Cn1c(=O)c(C#N)c(N2CCN(C(=O)c3cccs3)CC2)c2cccnc21` showed a melting point of 266 °C.

The molecule `CCC(=O)NC1Cc2ccccc2C(Cc2ccccc2)C1` (centres undefined) yielded a melting point of 148 to 149 °C.

`CCOC(=O)C1=C(C)NC(N=CN(C)C)=C(C(=O)OCC)C1c1cccc(OC)c1` (centres undefined): the melting point was 136 °C.

`Cc1nc(-c2ccc(C(F)(F)F)cc2)sc1CCOc1ccc(CCC(=O)O)cc1` returned a melting point of 128 to 130 °C.

For the molecule `Cn1nc(-c2cccc(-n3ncc4cc(C(C)(C)C)cc(F)c4c3=O)c2CO)cc(Nc2cnc(CNC3CCC3)cn2)c1=O`, the melting point lay within 163 to 167 °C.

Turning to `Cc1nc(SCc2ccncc2C(=O)O)sc1CC(=O)O`, the melting point fell in the range of 178 to 180 °C.

The molecule `CC(C)(C)c1ccc(C2(CN)CC2)cc1` yielded a melting point of 39 to 41 °C.

In the case of `CC(C)(C)c1ccc2c(c1)C(COCc1ccccc1)([Si](C)(C)C)c1cc(C(C)(C)C)ccc1-2`, the melting point lay within 100 to 102 °C.
